Source: ChEMBL document CHEMBL1201862, “PubChem BioAssay data set” (2004)
Several values for one entry are separate records, joined by “and”; a condition that tells them apart may be missing. Equal entries are not always repeated. Activity calls are given as the source filed them.

How the values were obtained:
[1] = Shn3 3'UTR reporter inhibitors, dose response, cell-based, Clone20 osteoblasts, firefly luciferase, cherry-picked (AID 624132); format: functional;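 note: firefly luciferase luminescence from reporter carrying the Shn3 3'UTR in osteoblasts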
[2] = HepG2 cell cytotoxicity, dose response, cytotoxicity control for Shn3 inhibitor project, CellTiter-Glo, cherry-picked (AID 624134); format: functional, cell-based
[3] = control 3'UTR Renilla luciferase suppression, dose response, counter-screen for Shn3 inhibitor project, cell-based, Clone20-Shn3RL, cherry-picked (AID 624133); format: functional
Protein Wnt-3a = Protein Wnt-3a (Mus musculus, UniProt P27467); test: Wnt3a-driven reporter signaling inhibition, dose response, selectivity assay for Gli-SUFU antagonist project, Wnt-LIGHT cells, luminescence (AID 651570); format: functional; settings: read-out: IC50_Mean;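 note: Wnt-LIGHT reporter cells stimulated with conditioned medium from Wnt3a-producing cells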
[4] = biological target: Aryl hydrocarbon receptor (Homo sapiens, UniProt P35869); settings: Potency;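 note: confirmatory quantitative high-throughput screen measuring activation of the AhR signaling pathway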
HEK293 [5] = test: NOD1 signaling inhibitors, primary screen, cell-based, luminescence, uHTS (AID 1578); format: functional; settings: Homo sapiens
HEK293 [6] = test: cells; format: functional, cell-based; settings: Homo sapiens
HEK293 [7] = test: cells; format: functional, cell-based; settings: Homo sapiens; remark: listed apart in the source
[8] = biological target: Nucleotide-binding oligomerization domain-containing protein 2 (Homo sapiens, UniProt Q9HC29); test: NOD2 signaling inhibitors, cell-based, luminescence, uHTS, HEK293 (AID 1566); format: functional
HEK293 [9] = test: NOD2 signaling inhibitors in MDP-stimulated cells, cell-based, uHTS, luminescence (AID 2001); format: functional; settings: Homo sapiens
HEK293 [10] = test: cells; format: functional, cell-based; settings: Homo sapiens; remark: listed apart in the source
Beta-galactosidase = Beta-galactosidase (Escherichia coli, UniProt Q8VNN2); test: beta-galactosidase enzyme inhibitors and activators, dose response, artefact control for CCR6 antagonist project, biochemical, E. coli enzyme, set 3 (AID 504712); format: functional
[11] = Fluorescence-based cell-based high throughput dose response assay for inhibitors of the interaction of nucleotide-binding oligomerization domain containing 2 (NOD2) and the receptor-interacting serine-threonine kinase 2 (RIPK2).; format: functional; settings: Homo sapiens
Beta Lactamase = Beta Lactamase (Pseudomonas aeruginosa, UniProt Q932Y6); test: beta-lactamase reporter inhibitor potency, dose response, artefact control for NOD2-RIPK2 interaction inhibitor project, BLA reporter cells, FRET fluorescence (AID 651552); format: functional, cell-based
Paired box protein Pax-8 = Paired box protein Pax-8 (Homo sapiens, UniProt Q06710); test: inhibitors of PAX8-driven TPO luciferase reporter, dose response, RMG-I cells, cherry-pick (AID 687027); format: functional, cell-based;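 note: luciferase reporter driven by Pax8 target thyroperoxidase promoter measured by SteadyGlo luminescence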
[12] = cytotoxicity in COV362 ovarian cancer cells, dose response, cytotoxicity control for PAX8 inhibitor project, cell-based, plate reader, dry powder, SA12 (AID 743144); format: functional
[13] = NIH:OVCAR-3 ovarian cancer cell cytotoxicity, dose response, PAX8 inhibitor project, plate reader, dry powder samples (AID 743044); format: functional, cell-based
[14] = IGROV1 ovarian cancer cell cytotoxicity, dose response, PAX8 inhibitor project, plate reader, dry powder samples (AID 743043); format: functional, cell-based; settings: IGROV-1
[15] = cytotoxicity in OVCAR4 cells, dose response, cytotoxicity control for PAX8 inhibitor project, cell-based, plate reader, dry powder, SA11 (AID 743150); format: functional; settings: OVCAR-4
[16] = cytotoxicity in COV434 cells, dose response, cytotoxicity control for PAX8 inhibitor project, cell-based, plate reader, dry powder, SA7 (AID 743145); format: functional
[17] = cytotoxicity in OV-90 ovarian cancer cells, dose response, PAX8 inhibitor project, cell-based, plate reader, dry powder, SA8 (AID 743149); format: functional
[18] = cytotoxicity dependent on PAX8, dose response, cell-based, plate reader, dry powder (AID 743049); format: functional
Nonstructural protein 1 = Nonstructural protein 1 (Influenza A virus, UniProt Q194T2); format: functional, Influenza A virus (A/California/07/2009(H1N1))
[19] = AlphaScreen signal interference compounds, dose response, artefact control for ARNT-TACC3 interaction inhibitor project, biochemical, luminescence, cherry-pick (AID 651705); format: functional;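 note: AlphaScreen bead proximity signal that flags compounds interfering with the detection technology; potency reflects signal decrease which marks the compound as an assay artifact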
[20] = NIH-3T3 fibroblast cytotoxicity, dose response, cytotoxicity control for antifungal single agent project, cell-based, Alamar Blue, dry powder (AID 602188); format: functional
[21] = biological target: T1, Sentrin-specific protease 8 (Homo sapiens, UniProt Q96LD8); format: functional
T1 sequence (Q96LD8 whole entry): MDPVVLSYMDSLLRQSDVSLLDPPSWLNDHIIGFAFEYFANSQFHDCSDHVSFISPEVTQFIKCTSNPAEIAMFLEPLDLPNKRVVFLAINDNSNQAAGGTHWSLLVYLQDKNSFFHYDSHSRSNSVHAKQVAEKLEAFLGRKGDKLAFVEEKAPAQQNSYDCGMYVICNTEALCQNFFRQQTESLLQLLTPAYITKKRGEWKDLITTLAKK

[22] = biological target: T1, Sentrin-specific protease 8; format: functional; remark: listed apart in the source
[23] = ARNT/TACC3 interaction disruptors, potency, confirmation, biochemical, AlphaScreen, cherry-picked samples (AID 651703); format: functional, Homo sapiens;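 note: His-tagged ARNT PAS-B domain paired with GST-TACC3 E629A dimer coactivator fragment; potency of inhibitors that break up the complex and lower AlphaScreen signal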
[24] = Luminescence Cell-Based Dose Response HTS to Identify Inhibitors of 5'UTR Stem-Loop Driven Prion Protein mRNA Translation in H4 Neuroglioblastoma Cells. [Related pubchem assays: 1827 (Project Summary), 1813 (Primary HTS)]; format: functional
[25] = inhibitors of SNCA 5'UTR-driven reporter translation, confirmation, H4 neuroglioma cells, luminescence (AID 1988); format: functional, cell-based
[26] = biological target: DNA (cytosine-5)-methyltransferase 1 (Homo sapiens, UniProt P26358); test: DNMT1 methyltransferase inhibitors, confirmation, biochemical, fluorescent molecular beacon (AID 602386); format: functional
[27] = biological target: T2, DNA repair protein RAD52 homolog (Homo sapiens, UniProt P43351); format: functional, biochemical
T2 sequence (P43351 whole entry): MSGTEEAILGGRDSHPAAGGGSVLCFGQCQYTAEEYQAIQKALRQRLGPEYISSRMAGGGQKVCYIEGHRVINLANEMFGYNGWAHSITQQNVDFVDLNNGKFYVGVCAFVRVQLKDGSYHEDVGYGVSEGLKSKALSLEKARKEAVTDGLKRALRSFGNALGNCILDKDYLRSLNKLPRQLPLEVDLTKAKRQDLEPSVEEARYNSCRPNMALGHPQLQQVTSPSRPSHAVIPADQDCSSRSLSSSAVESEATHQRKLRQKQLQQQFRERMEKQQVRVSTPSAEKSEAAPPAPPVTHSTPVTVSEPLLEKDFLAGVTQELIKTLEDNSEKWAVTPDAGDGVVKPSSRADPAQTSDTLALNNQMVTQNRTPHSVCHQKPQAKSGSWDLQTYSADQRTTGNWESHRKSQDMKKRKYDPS

Interleukin-8 = Interleukin-8 (Homo sapiens, UniProt P10145); test: Dose Response confirmation of uHTS small molecule hits for cystic fibrosis induced NFkb Inhibitors in a PAF-induced IL8 counterscreen.; format: functional; settings: read-out: IC50_Mean
[28] = biological target: ATP-binding cassette sub-family B member 6 (Homo sapiens, UniProt Q9NP58); test: ABCB6 transporter inhibitors, dose response, K562-ABCB6 cells, flow cytometry, cherry pick 1 (AID 623955); format: functional; settings: read-out: EC50_MICROM
CAAX prenyl protease 2 [29] = biological target: T3, CAAX prenyl protease 2 (Saccharomyces cerevisiae S288c, UniProt Q03530); format: biochemical
T3 sequence (Q03530 whole entry): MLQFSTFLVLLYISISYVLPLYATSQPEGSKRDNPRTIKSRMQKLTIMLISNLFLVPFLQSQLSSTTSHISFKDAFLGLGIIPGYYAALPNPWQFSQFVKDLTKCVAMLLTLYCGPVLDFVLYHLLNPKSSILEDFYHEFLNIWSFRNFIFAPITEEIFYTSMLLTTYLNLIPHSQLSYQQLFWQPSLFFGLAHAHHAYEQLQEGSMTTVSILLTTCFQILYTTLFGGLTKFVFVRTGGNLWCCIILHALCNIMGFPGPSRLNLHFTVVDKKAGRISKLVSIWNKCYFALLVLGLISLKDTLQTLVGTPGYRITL

CAAX prenyl protease 2 [30] = biological target: CAAX prenyl protease 2 (Homo sapiens, UniProt Q9Y256); test: human Rce1 protease inhibitors, dose response, biochemical, yeast membranes, quenched-peptide fluorescence, cherry-pick (AID 588849)
[31] = biological target: ATP-dependent molecular chaperone HSP82 (Candida albicans (strain WO-1) (Yeast), UniProt C4YTQ8); test: loss of DOC-induced GRE-beta-galactosidase reporter signal, dose response, Hsp90 inhibitor project, S. cerevisiae, luminescence (AID 2400); format: functional, cell-based;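 note: beta-galactosidase luminescence from glucocorticoid response element reporter as proxy for Hsp90 function; inhibitor potency where signal loss means Hsp90 inhibition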
Melanocortin receptor 4 = Melanocortin receptor 4 (Homo sapiens, UniProt P32245); test: MC4R antagonist potency on cAMP, dose response, cell-based, TR-FRET, biased antagonists (AID 602298); format: functional;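 note: antagonist potency against agonist-stimulated cAMP production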
[32] = biological target: Hepatocyte nuclear factor 4-alpha (Homo sapiens, UniProt P41235); format: functional, cell-based;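 note: biochemical luminescence-based dose-response counterscreen measuring inhibition of HNF4 dimerization, run alongside a screen for blockers of ABHD5–perilipin-5 interaction; split luciferase complementation of HNF4 fusion proteins in cell lysate measuring dimerization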
[33] = biological target: T4, Rac GTPase-activating protein 1 (Homo sapiens, UniProt Q9H0H5); test: MgcRacGAP GTPase-activating activity inhibitors, confirmation, biochemical, ADP Hunter fluorescence, primary and confirmatory (AID 624330); format: functional
T4 sequence (Q9H0H5 whole entry): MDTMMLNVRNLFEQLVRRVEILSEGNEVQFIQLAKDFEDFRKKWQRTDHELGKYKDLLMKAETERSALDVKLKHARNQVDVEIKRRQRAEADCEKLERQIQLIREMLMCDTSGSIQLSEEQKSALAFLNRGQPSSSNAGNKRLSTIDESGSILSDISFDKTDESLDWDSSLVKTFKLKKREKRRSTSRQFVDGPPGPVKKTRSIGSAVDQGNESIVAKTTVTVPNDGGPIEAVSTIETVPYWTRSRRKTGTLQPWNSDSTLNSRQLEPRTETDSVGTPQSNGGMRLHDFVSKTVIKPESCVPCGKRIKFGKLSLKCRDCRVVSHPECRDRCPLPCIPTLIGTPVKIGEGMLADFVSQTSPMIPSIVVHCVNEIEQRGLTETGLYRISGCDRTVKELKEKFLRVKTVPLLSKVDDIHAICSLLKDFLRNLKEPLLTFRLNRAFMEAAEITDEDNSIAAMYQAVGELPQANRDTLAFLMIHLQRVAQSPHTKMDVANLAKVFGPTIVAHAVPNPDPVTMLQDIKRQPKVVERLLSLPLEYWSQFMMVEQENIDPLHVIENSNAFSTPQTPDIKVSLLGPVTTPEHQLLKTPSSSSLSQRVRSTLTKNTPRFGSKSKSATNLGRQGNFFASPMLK

ATP-dependent molecular chaperone HSP82, sequence (C4YTQ8 whole entry): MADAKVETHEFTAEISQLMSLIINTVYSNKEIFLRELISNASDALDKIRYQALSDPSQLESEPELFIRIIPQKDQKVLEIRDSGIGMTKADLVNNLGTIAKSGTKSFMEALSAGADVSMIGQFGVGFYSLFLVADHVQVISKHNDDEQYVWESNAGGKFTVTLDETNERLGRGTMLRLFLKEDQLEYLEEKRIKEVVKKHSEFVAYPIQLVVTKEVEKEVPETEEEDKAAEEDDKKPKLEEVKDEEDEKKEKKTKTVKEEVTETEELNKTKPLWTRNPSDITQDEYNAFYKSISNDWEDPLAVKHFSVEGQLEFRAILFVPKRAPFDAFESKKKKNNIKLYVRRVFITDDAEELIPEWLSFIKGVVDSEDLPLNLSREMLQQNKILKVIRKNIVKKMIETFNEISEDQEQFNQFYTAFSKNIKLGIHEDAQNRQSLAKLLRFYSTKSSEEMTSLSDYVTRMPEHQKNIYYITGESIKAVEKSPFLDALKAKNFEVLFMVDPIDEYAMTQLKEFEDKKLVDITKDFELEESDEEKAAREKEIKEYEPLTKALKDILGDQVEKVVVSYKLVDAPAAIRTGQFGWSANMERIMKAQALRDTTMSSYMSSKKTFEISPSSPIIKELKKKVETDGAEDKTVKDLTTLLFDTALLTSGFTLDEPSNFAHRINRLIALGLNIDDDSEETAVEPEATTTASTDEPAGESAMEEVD
Aryl hydrocarbon receptor, sequence (P35869 whole entry): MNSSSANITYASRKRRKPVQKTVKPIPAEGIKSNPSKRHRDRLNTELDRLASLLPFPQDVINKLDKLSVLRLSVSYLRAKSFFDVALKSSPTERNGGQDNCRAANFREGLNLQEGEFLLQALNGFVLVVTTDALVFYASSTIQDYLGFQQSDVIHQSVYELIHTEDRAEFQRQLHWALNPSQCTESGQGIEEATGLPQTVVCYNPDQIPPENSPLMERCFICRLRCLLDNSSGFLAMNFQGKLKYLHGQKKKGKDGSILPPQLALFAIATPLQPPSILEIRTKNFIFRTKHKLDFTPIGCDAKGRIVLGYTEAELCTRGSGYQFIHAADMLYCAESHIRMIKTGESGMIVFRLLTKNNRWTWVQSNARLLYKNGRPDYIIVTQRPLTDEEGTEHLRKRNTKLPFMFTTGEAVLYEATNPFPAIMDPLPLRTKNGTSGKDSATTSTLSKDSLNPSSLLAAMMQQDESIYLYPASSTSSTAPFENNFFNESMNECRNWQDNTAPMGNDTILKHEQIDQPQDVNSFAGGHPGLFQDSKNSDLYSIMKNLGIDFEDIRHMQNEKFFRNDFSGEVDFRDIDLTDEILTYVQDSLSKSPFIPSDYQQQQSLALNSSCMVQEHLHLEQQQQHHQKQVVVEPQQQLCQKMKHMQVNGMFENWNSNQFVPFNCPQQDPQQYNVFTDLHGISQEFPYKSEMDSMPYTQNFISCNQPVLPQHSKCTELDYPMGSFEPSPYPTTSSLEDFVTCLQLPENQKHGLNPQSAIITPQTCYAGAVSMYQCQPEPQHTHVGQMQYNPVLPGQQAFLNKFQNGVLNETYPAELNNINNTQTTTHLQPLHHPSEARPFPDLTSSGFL
Hepatocyte nuclear factor 4-alpha, sequence (P41235 whole entry, the tested form may be a part): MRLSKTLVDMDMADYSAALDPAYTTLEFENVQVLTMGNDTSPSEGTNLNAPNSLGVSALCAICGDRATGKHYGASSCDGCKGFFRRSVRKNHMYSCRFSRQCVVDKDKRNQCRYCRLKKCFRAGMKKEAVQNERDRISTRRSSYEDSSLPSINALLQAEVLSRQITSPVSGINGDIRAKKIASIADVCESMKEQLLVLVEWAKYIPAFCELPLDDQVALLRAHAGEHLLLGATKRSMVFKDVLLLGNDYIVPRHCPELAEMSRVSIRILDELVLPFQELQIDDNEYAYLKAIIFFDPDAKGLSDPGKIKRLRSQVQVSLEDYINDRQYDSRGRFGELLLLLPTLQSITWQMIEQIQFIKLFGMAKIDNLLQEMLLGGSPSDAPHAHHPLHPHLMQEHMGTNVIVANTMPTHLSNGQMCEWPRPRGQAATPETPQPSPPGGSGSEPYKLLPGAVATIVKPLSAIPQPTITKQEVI
Nucleotide-binding oligomerization domain-containing protein 2, sequence (Q9HC29 whole entry, the tested form may be a part): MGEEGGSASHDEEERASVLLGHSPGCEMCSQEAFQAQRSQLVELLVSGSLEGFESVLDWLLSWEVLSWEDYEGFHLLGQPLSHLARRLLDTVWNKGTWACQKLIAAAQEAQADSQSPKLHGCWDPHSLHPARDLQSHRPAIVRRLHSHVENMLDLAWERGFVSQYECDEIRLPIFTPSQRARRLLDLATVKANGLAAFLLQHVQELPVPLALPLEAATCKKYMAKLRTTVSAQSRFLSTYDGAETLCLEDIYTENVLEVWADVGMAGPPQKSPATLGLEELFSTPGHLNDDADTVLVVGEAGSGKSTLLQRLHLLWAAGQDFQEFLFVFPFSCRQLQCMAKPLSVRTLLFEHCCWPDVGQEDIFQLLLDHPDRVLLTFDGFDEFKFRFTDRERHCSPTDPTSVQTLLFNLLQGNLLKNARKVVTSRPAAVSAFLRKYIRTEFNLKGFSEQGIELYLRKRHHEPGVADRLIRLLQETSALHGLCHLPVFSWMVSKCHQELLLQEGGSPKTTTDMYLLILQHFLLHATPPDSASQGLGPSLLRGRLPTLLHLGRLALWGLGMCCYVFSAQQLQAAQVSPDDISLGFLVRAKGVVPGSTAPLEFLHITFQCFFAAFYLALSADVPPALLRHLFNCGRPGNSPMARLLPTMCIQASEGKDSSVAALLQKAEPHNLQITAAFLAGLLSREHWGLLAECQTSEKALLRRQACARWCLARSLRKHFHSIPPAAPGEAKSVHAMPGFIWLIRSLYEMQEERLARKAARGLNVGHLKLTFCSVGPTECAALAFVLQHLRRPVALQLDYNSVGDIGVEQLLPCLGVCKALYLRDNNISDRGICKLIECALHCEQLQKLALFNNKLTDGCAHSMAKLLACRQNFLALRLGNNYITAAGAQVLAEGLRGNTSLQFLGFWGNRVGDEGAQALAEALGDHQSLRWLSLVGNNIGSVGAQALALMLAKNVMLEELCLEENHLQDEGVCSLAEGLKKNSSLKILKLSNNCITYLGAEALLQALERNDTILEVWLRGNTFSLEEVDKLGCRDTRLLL
ATP-binding cassette sub-family B member 6, sequence (Q9NP58 whole entry): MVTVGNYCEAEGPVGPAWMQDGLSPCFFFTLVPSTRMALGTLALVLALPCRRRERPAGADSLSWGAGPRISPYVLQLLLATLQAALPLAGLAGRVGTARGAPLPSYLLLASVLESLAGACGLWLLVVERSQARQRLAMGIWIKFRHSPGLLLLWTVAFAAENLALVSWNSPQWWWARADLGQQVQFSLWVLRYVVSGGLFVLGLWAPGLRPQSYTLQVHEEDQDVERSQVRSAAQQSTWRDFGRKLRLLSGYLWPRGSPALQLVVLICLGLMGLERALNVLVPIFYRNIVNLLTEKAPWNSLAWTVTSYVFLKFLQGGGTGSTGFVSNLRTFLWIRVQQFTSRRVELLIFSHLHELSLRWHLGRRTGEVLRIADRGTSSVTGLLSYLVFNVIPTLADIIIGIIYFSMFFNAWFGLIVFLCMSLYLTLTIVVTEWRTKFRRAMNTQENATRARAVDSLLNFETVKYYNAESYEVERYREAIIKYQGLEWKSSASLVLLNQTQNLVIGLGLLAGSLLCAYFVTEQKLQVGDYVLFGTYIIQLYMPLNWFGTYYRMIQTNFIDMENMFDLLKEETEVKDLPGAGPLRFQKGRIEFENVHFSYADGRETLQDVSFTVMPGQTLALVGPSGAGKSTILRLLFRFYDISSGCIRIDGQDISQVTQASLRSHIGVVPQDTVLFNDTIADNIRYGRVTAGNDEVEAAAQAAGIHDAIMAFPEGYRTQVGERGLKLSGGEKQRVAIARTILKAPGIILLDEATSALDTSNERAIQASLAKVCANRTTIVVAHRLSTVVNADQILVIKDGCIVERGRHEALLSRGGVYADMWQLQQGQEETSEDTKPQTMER
Protein Wnt-3a, sequence (P27467 whole entry): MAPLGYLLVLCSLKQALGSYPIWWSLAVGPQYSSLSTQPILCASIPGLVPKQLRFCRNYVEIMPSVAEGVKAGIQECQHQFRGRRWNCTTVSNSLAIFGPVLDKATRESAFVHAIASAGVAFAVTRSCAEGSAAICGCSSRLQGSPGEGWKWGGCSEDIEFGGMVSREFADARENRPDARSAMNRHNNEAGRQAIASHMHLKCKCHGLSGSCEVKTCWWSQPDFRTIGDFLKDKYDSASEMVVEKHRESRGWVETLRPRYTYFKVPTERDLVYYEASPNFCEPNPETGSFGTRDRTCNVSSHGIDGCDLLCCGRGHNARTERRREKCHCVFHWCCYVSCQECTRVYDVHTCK
CAAX prenyl protease 2 (Homo sapiens, UniProt Q9Y256), sequence (Q9Y256 whole entry): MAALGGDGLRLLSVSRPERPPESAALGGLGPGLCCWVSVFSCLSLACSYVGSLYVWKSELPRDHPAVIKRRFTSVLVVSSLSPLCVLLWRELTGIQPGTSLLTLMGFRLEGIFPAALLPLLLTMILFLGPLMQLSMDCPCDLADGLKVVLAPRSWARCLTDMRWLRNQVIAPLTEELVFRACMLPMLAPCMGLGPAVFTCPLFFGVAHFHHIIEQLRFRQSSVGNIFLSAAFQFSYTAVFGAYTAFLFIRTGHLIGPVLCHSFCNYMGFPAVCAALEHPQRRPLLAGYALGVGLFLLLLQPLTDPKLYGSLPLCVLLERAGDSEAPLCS
Beta Lactamase, sequence (Q932Y6 whole entry): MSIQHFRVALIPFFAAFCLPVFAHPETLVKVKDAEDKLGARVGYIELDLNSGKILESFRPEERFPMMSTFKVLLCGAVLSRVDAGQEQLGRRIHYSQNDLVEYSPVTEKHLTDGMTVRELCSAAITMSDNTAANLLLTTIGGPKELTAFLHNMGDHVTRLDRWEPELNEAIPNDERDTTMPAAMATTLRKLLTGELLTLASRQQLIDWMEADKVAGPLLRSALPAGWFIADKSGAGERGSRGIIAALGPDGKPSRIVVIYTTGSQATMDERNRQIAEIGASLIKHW
Interleukin-8, sequence (P10145 whole entry): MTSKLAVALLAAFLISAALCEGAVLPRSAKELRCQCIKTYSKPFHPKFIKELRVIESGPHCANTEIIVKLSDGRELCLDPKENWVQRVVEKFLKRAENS

COCCOc1nc2c(c(=O)n(C)c(=O)n2C)n1Cc1cccc(OC)c1
AC50 [1]: 2.23 µM (active)
AC50 [2]: 59.9 µM (active)
AC50 [3]: 4.09 µM (active)
IC50 (Protein Wnt-3a): 6.29 µM (active)

Nc1ccc(N)c(Cl)c1
AC50 [4]: 31.6 µM (inconclusive)

COc1cccc2sc(N(CCCN(C)C)C(=O)CCS(=O)(=O)c3ccccc3)nc12
EC50 (HEK293 [5]): 8.24 µM (active)
IC50 (HEK293 [6]): 5.96 µM (active)
IC50 (HEK293 [7]): > 20 µM (inactive)
EC50 [8]: > 20 µM (inactive)
IC50 (HEK293 [9]): 6.06 µM (active)
IC50 (HEK293 [10]): > 20 µM (inactive)
IC50 (Beta-galactosidase): > 66.6 µM (inactive)
IC50 [11]: 4.68 µM (active)
IC50 (Beta Lactamase): 17.2 µM (inactive)
AC50 (Paired box protein Pax-8): 7.04 µM (active)
AC50 [12]: 13.9 µM (active)
AC50 [13]: 10 µM (active)
AC50 [14]: 28.7 µM (active)
AC50 [15]: 22.1 µM (active)
AC50 [16]: 12.9 µM (active)
AC50 [17]: 43.1 µM (active)
AC50 [18]: 8.54 µM (active)

COc1cc([N+](=O)[O-])cc(/C=N/NC(=O)Cn2cncn2)c1O
IC50 (Nonstructural protein 1): 10.1 µM (active)
AC50 [19]: 85 µM (active)

O=C(Nc1nc(-c2ccccn2)cs1)c1ccccc1
AC50 [20]: 7.19 µM (active)

Cc1ccoc1C(=O)NCCCNC(=O)c1occc1C
IC50 [21]: 8.27 µM (active)
IC50 [22]: 12.7 µM (active)
AC50 [23]: 84.7 µM (active)

CC1(C)CC(N=c2cc(-c3ccccc3)oc3ccc(Cl)cc23)CC(C)(C)N1
EC50 [24]: > 120 µM (not active)
EC50 [25]: > 60 µM (not active)
IC50 [26]: > 99 µM (inactive)
AC50 [27]: 0.689 µM (active)

Cc1ccc2occ(/C=N/NC(=O)c3ccccc3Br)c(=O)c2c1
IC50 (Interleukin-8): 3.77 µM (active)

C[N+](C)(C)CC1CCCC(C[N+](C)(C)C)C1=O (stereo unspecified)
EC50 [28]: 4.14 µM (active)

[H]/N=C(\N/C(=N/[H])NCCCCCCNC(=N)NC(=N)Nc1ccc(Cl)cc1)Nc1ccc(Cl)cc1
AC50 (CAAX prenyl protease 2 [29]): 23.1 µM (active)
AC50 (CAAX prenyl protease 2 [30]): 12.9 µM (active)
EC50 [31]: 19.8 µM (active) and > 160 µM (inactive)
IC50 (Melanocortin receptor 4): 1.55 µM (active)
IC50 [32]: 21.4 µM (inactive)
IC50 [33]: 42.3 µM (active)
AC50 [27]: 17.4 µM (active)
